Read-outs that look alike come from different tables or passages of the source.
How the values were obtained:
mushroom tyrosinase [1] = test: Mushroom tyrosinase inhibition assay (dopachrome, 475 nm); format: biochemical; conditions: for IC50: mushroom tyrosinase
Procedure: The ability of the BMTTZD analogs to inhibit mushroom tyrosinase was evaluated in the presence of L-dopa and L-tyrosine as previously described.

mushroom tyrosinase [2] = molecular target: mushroom tyrosinase (Agaricus bisporus, UniProt C7FF04); test: Kinetic study of mushroom tyrosinase inhibition (Lineweaver–Burk and Dixon plots); format: biochemical; conditions: for type of tyrosinase inhibition (Lineweaver–Burk plots): substrate L-dopa 0.5–16 mM
Procedure: The initial rate of dopachrome generation was examined at various BMTTZD analog concentrations (0, 1.5, 3, and 6 µM for analog 1; 0, 2, 4, and 8 µM for analogs 2 and 5; and 0, 0.05, 0.1, and 0.2 µM for 3) with 0.5, 1, 2, 4, 8, or 16 mM L-dopa as substrates using mushroom tyrosinase. Plotting the reciprocal of the dopachrome formation rate against the inverse of the L-dopa concentration produced Lineweaver–Burk plots (Figure 2). Each Lineweaver–Burk plot created four straight lines with different slopes. For analogs 1 and 3, the four straight lines met at a point on the y-axis, whereas for analogs 2 and 5, the four straight lines converged at a point in the second quadrant.
The Dixon plots produced lines that met in the second quadrant. The x-coordinate of the convergence position represents the inhibition constant (Ki) of the ligand.
Lineweaver–Burk (L-B) plots were acquired for the kinetic analysis of analogs against mushroom tyrosinase as previously described. In brief, 10 µL of a solution of DMSO and BMTTZD analogs 1–3 or 5 (final concentrations: 0, 1.5, 3, and 6 µM for analog 1; 0, 2, 4, and 8 µM for analogs 2 and 5; and 0, 0.05, 0.1, and 0.2 µM for analog 3) in each well of a 96-well plate was mixed with 20 µL of aqueous mushroom tyrosinase solution (200 units/mL) and 170 µL of an aqueous substrate mixture (various concentrations of L-dopa (final concentrations: 16, 8, 4, 2, 1 and 0.5 mM) and 17.2 mM sodium phosphate buffer (pH 6.5)). During incubation (15 min at 37 °C), the increase in the well absorbance (ΔOD475/min) was calculated at 1 min intervals utilizing a VersaMax® reader.

B16F10 cells [3] = test: Cell cytotoxicity test (EZ-Cytox); format: cell-based, murine; conditions: 2.5–20 µM, 48 and 72 h
Procedure: Because analogs 1–3 and 5 exerted potent mushroom tyrosinase inhibitory activities, their effects on anti-melanogenic and cellular tyrosinase activities were evaluated in B16F10 murine cells. Prior to examining their cellular activity, their cell viabilities were investigated. Cell viability was evaluated at 48 and 72 h after treatment with five different concentrations of analogs.
The effect on B16F10 cytotoxicity was assessed following a previously described method. Cells (1 × 10^4 cells/well of a 96-well plate) were cultivated for 24 h with 5% CO2 at 37 °C. The cells were exposed to the BMTTZD analogs (test concentrations: 20, 10, 5, 2.5, and 0 µM) and cultivated with 5% CO2 at 37 °C for 72 h. An EZ-Cytox solution (10 µL; EZ-500, DoGenBio, Seoul, Republic of Korea) was exposed to each well, and the plate was cultivated for 2 h. Cell viability was calculated from the well absorbance measured at 450 nm utilizing a reader (VersaMax®).

[4] = molecular target: T1, B16F10 cellular tyrosinase (Mus musculus, UniProt P11344); test: Cellular tyrosinase activity assay in B16F10 cells stimulated with IBMX plus α-MSH; format: cell-based, murine; conditions: 72 h; for effect on stimulator-induced cellular tyrosinase activity: 5, 10, 20 µM, IBMX plus α-MSH
T1 construct: host or cells: B16F10 cells
T1 sequence (P11344 19-533): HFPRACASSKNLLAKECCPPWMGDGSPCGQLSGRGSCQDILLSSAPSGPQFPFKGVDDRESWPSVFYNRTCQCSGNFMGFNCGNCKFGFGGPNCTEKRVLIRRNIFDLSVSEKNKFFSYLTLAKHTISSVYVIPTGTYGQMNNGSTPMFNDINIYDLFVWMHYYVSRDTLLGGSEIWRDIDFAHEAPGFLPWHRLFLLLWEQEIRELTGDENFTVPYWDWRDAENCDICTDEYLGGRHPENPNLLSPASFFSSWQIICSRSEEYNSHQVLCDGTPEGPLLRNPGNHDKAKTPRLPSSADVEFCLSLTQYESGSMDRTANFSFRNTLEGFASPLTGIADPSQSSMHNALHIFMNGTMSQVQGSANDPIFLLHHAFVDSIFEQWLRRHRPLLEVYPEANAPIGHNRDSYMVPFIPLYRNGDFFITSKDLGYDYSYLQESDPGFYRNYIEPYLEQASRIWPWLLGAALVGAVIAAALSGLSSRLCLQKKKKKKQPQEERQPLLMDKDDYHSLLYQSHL
Procedure: Analogs 1, 3, and 5 were exposed to B16F10 cells at various concentrations (20, 10, 5, and 0 µM) before exposure to IBMX (200 µM; 3-isobutyl-1-methylxanthine) and α-MSH (1 µM; α-melanocyte-stimulating hormone). After incubation (72 h), B16F10 cellular tyrosinase activity was determined. […] It was examined whether the cellular tyrosinase inhibition of the BMTTZD analogs could influence B16F10 cellular melanin contents.
Effects on B16F10 tyrosinase inhibition were evaluated as previously described. A 6-well plate containing 1 × 10^5 B16F10 cells/well was cultivated for 23 h under conditions identical to those of the cell culture. […] The cells were cultivated for 72 h. After washing 2 times with PBS, the cells were lysed in a 100 µL lysis buffer, including phenylmethylsulfonyl fluoride (5 µL; 1 mM), Triton X-100 (5 µL; 1%), and phosphate buffer (90 µL; 50 mM (pH 6.5)). After 30 min incubation at −80 °C, the cell lysates were centrifuged at 4 °C for 30 min. The supernatants (80 µL) of the lysates were moved to each well of a microplate and mixed with 20 µL 10 mM L-dopa.

B16F10 cells [5] = test: Melanin content assay in B16F10 cells; format: cell-based, murine; conditions: 72 h; for intracellular melanin contents compared with kojic acid: 20 µM; for effect on intracellular melanin contents enhanced by IBMX plus α-MSH: 5, 10, 20 µM
Procedure: We examined whether the ability of analogs 1, 3, and 5 to inhibit intracellular tyrosinase activity could affect intracellular melanin levels. B16F10 cells were utilized as mammalian cells. IBMX and α-MSH were used at 200 µM and 1 µM, respectively, to increase melanin biosynthesis. […] For the intracellular melanin content determination, the absorbance at 405 nm was evaluated after 72 h of incubation.
The effect of BMTTZD analogs on melanin biosynthesis was investigated following a previously described method. A 6-well microplate containing 1 × 10^5 B16F10 cells/well was cultivated for 23 h under conditions identical to those of the cell culture. […] After exposure to IBMX and α-MSH, B16F10 cells were cultivated for 72 h at 37 °C. The cells were rinsed 2 times with PBS, treated with 1N-NaOH aqueous solution (100 µL), and cultivated at 60 °C for 1 h. The lysates were moved to a microplate. At 405 nm, the well absorbance was measured utilizing a VersaMax® reader. Each experiment was carried out three times independently.

[6] = molecular target: T1, B16F10 cellular tyrosinase; test: In situ cellular tyrosinase activity assay using L-dopa staining; format: cell-based, murine; conditions: 72 h; for effect on stimulator-raised in situ intracellular tyrosinase activity (L-dopa staining): analogs 5, 10, 20 µM, kojic acid 20 µM
Procedure: Because tyrosinase plays a critical role in melanogenesis, in situ intracellular tyrosinase activity was measured. The in situ intracellular tyrosinase activity was evaluated in B16F10 cells following a previously reported procedure. Stimulators (α-MSH plus IBMX) were exposed to cells to raise tyrosinase activity levels, and analogs 1, 3, and 5 were treated at 20, 10, and 5 µM for 72 h. After fixation and permeabilization using paraformaldehyde and Triton X-100, the cells were stained with L-dopa.
A 24-well plate containing 1 × 10^3 B16F10 cells/well was cultivated for 24 h under conditions identical to those of the cell culture. […] The cells were then cultivated under conditions identical to those of the cell culture for 72 h. Cultivated cells were fixed for 40 min with paraformaldehyde (4%), washed 2 times with PBS, and permeabilized with Triton X-100 (0.1%) for 2 min. After washing 2 times with PBS, the cells in the 24-well plate were stained with a 2 mM L-dopa aqueous solution (500 µL/well) for 2 h at 37 °C. Staining was photographed and analyzed utilizing a camera connected to a microscope (Motic, Hong Kong).

[7] = DPPH radical scavenging activity assay; conditions: 500 µM
Procedure: First, the ability of BMTTZD analogs 1–8 to scavenge DPPH radicals was examined using L-ascorbic acid (vitamin C; positive control). All samples were tested at 500 µM.
The ability of the BMTTZD analogs to scavenge DPPH radicals was evaluated as previously reported. To each well of a 96-well plate containing analogs 1–8 (5 mM in […]; 20 µL) was added a DPPH solution (0.2 mM in methanol; 180 µL). The mixture was kept in a place without light for 30 min at 25°C to generate DPPH radicals. The well absorbance at 517 nm was measured utilizing a VersaMax® reader. The ability of the analogs to remove DPPH radicals was compared to that of vitamin C.

[8] = ABTS+ radical scavenging activity assay; conditions: 100 µM
Procedure: Second, the ability of BMTTZD analogs to scavenge ABTS^+ radicals was examined. ABTS^+ radicals were obtained via the oxidation of ABTS using potassium persulfate. All samples (Trolox (positive control) and 1–8) were tested at 100 µM.
The ability of the BMTTZD analogs to scavenge ABTS^+ radicals was assessed as previously described, with minor modifications. To a 50 mL tube were added 20 mL aqueous K2S2O8 solution (2.45 mM) and 20 mL aqueous ABTS solution (7 mM). The combined mixture was placed at 22 °C in a place without light for 17 h to generate the ABTS^+ radicals. For adequate absorbance control (0.70 ± 0.02 at 734 nm), methanol was added to the combined mixture. Test compounds (Trolox and analogs 1–8; 10 µL in 10% DMSO/90% EtOH [v/v] solution) were mixed with 90 µL ABTS^+ radical solution. After storage in a place without light for 2 min, the well absorbance at 734 nm was acquired for 10 min every 1 min by using a microplate reader (VersaMax®). All test compounds were tested at 100 µM. The activity of the analogs was compared to that of Trolox.

[9] = substrate L-dopa, read-out: IC50 (Mean ± SEM, µM) L-Dopa
[10] = substrate L-tyrosine, read-out: IC50 (Mean ± SEM, µM) L-Tyrosine
[11] = analog at highest concentration tested (20 µM)

mushroom tyrosinase (Agaricus bisporus, UniProt C7FF04), sequence (C7FF04 1-392): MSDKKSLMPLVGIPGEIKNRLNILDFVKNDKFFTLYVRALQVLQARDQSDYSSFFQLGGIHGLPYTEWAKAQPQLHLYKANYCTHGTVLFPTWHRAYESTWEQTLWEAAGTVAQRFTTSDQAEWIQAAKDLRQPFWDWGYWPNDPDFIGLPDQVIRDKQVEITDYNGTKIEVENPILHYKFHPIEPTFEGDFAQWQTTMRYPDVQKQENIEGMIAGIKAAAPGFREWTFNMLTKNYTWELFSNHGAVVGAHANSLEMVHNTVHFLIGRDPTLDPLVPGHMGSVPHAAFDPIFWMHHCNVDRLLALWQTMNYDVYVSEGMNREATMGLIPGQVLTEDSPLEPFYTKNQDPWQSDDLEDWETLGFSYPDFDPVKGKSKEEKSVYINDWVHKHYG

SMILES	reduction in tyrosinase inhibition relative to analog 3 (mushroom tyrosinase [1]; substrate L-dopa)	IC50 (mushroom tyrosinase [1]; [9])	tyrosinase inhibition, times stronger than kojic acid (mushroom tyrosinase [1]; substrate L-tyrosine)	IC50 (mushroom tyrosinase [1]; [10])	type of tyrosinase inhibition (Lineweaver–Burk plots) (mushroom tyrosinase [2])	Ki (mushroom tyrosinase [2]; substrate L-dopa, read-out: inhibition constant (Ki) from Dixon plots)	cytotoxicity (cell viability) (B16F10 cells [3])	effect on stimulator-induced cellular tyrosinase activity [4]	cellular tyrosinase inhibition compared with kojic acid (20 µM) ([4]; analog at 10 µM)	cellular tyrosinase inhibition compared with kojic acid (20 µM) [4, 11]	intracellular melanin contents compared with kojic acid (B16F10 cells [5])	effect on intracellular melanin contents enhanced by IBMX plus α-MSH (B16F10 cells [5])	in situ intracellular tyrosinase inhibition compared with kojic acid ([6]; 20 µM)	effect on stimulator-raised in situ intracellular tyrosinase activity (L-dopa staining) [6]	tyrosinase inhibition, fold stronger than kojic acid (mushroom tyrosinase [1]; substrate L-dopa)	DPPH radical scavenging activity [7]	ABTS^+ radical scavenging activity [8]
CN1C(=O)/C(=C/c2ccc(O)cc2)SC1=S [Analog 1, (Z)-5-(4-Hydroxybenzylidene)-3-methyl-2-thioxothiazolidin-4-one]	17 fold	17.6 ± 0.62 µM	five times more strongly than kojic acid	3.82 ± 0.22 µM	competitive inhibitors	6.2 µM	did not exhibit cytotoxicity at ≤20 µM	concentration-dependently and significantly reduced	slightly more strongly than kojic acid	stronger inhibitory effects than kojic acid	levels similar to those in treatment with kojic acid	significantly reduced the melanin contents	weaker intracellular tyrosinase inhibition efficacy than kojic acid	concentration-dependently reduced the stimulator-enhanced intracellular tyrosinase inhibition	–	–	–
CN1C(=O)/C(=C/c2ccc(O)c(O)c2)SC1=S [Analog 2, (Z)-5-(3,4-Dihydroxybenzylidene)-3-methyl-2-thioxothiazolidin-4-one]	–	6.18 ± 0.17 µM	–	3.77 ± 0.47 µM	mixed-type inhibitors	–	significant cytotoxicity in a concentration-dependent manner, even at 2.5 µM	–	–	–	–	–	–	–	four times stronger than kojic acid	93%	92%
COc1cc(/C=C2\SC(=S)N(C)C2=O)ccc1O [Analog 4, (Z)-5-(4-Hydroxy-3-methoxybenzylidene)-3-methyl-2-thioxothiazolidin-4-one]	–	> 200 µM	–	54.8 ± 16.1 µM	–	–	–	–	–	–	–	–	–	–	–	82%	–
COc1ccc(/C=C2\SC(=S)N(C)C2=O)cc1O [Analog 5, (Z)-5-(3-Hydroxy-4-methoxybenzylidene)-3-methyl-2-thioxothiazolidin-4-one]	–	13.8 ± 2.64 µM	–	3.6 ± 0.52 µM	mixed-type inhibitors	–	did not exhibit cytotoxicity at ≤20 µM	concentration-dependently and significantly reduced	–	stronger inhibitory effects than kojic acid	levels similar to those in treatment with kojic acid	significantly reduced the melanin contents	–	concentration-dependently reduced the stimulator-enhanced intracellular tyrosinase inhibition	–	–	–
O=C1O[C@H]([C@@H](O)CO)C(O)=C1O [L-Ascorbic acid, reference compound]	–	–	–	–	–	–	–	–	–	–	–	–	–	–	–	97%	–

— paper PMC11206987, “Investigation of the Efficacy of Benzylidene-3-methyl-2-thioxothiazolidin-4-one Analogs with Antioxidant Activities on the Inhibition of Mushroom and Mammal Tyrosinases” (Molecules, 2024)
